This passage reports EC50 and inhibition results from PubChem BioAssay AID489002 (NMMLSC, 2010).

Molecules are shown by their SMILES. Activity calls are given as the source filed them.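 How the source made its calls: active means combined score above 52 from an acceptable curve fit, favoring EC50 below 10 µM and curve height over 20%; inactive means the rest.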

The term EC50 denotes the concentration that produces a half-maximal response.

Sequence of ATP-dependent translocase ABCB1 (Homo sapiens) (P08183 whole entry, looked up): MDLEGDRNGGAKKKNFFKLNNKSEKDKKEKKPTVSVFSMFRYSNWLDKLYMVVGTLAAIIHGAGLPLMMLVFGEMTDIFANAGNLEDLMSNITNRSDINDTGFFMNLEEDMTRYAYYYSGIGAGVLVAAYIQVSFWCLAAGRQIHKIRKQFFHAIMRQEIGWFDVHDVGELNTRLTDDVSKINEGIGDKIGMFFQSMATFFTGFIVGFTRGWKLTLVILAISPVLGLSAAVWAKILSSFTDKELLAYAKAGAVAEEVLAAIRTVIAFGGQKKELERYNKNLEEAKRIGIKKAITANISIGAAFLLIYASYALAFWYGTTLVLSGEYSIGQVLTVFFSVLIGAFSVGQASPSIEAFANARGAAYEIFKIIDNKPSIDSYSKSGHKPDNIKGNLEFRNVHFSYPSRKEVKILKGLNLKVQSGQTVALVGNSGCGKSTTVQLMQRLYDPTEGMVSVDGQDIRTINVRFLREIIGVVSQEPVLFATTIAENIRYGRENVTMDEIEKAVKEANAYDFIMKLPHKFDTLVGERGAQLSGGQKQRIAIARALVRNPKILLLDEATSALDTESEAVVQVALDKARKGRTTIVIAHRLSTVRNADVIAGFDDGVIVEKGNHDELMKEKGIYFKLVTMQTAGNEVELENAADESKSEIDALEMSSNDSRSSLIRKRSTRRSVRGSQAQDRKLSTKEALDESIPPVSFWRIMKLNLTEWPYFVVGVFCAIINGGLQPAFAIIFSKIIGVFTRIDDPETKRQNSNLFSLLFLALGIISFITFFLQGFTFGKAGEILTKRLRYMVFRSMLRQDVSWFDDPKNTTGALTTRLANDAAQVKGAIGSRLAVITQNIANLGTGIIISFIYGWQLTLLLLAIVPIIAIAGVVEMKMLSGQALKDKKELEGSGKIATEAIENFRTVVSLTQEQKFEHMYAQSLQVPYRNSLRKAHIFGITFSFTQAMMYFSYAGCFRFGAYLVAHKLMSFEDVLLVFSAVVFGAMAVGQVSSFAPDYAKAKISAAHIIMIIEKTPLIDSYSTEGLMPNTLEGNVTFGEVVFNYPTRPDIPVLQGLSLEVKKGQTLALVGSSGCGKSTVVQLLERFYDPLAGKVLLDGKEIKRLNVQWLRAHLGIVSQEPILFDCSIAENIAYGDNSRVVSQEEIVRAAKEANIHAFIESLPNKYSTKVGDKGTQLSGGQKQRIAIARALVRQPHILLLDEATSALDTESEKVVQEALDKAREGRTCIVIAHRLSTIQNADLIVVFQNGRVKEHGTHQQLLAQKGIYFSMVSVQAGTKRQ

The first test concerns the target ATP-dependent translocase ABCB1 (Homo sapiens) (UniProt P08183). The test can be described thus: P-gp JC-1 efflux blockers potency – Jurkat-DNR cells, flow cytometry, follow-up, dose response (AID 489002).
Details: not given
In general terms: Flow cytometry measures light scatter and fluorescence of single cells or particles in a stream.
As to `CC(C)(C)c1cc(N2CCN(C(=O)c3ccoc3)CC2)n2nc(-c3ccccc3)cc2n1`, the EC50 entry was “inactive”.

Consider `COc1cccc(-c2cc3nc(-c4cccc(C#N)c4)cc(N4CCN(C(=O)c5ccoc5)CC4)n3n2)c1`, for which the EC50 was 2.34 µM. In the case of `O=C(c1ccoc1)N1CCN(c2cc(-c3ccco3)nc3cc(-c4ccccc4)nn23)CC1`, the EC50 was 4.6 µM. Same read-out and setting: then `COc1cccc(-c2cc3nc(C)c(C)c(N4CCN(C(=O)c5ccco5)CC4)n3n2)c1`, with 11.8 µM.

In the case of `COc1cccc(-c2cc3nc(C)c(C(C)C)c(N4CCN(C(=O)c5ccoc5)CC4)n3n2)c1`, the EC50 is 10.2 µM. Take `Cc1cc(N2CCN(C(=O)C3CCCO3)CC2)n2nc(-c3cccc(F)c3)cc2n1` (stereo not given): the EC50 entry is “inactive”. In the case of `O=C1CN(c2cc(-c3ccco3)nc3cc(-c4ccccc4)nn23)CCN1c1ccccc1`, the EC50 was 6.61 µM. On the same count and under the same terms, as for `CNCCCN(C)c1cc(-c2ccco2)nc2cc(-c3ccccc3)nn12`, the entry is “inactive”; as for `COc1ccccc1-c1cc2nc(-c3ccco3)cc(N3CCN(C(=O)c4ccoc4)CC3)n2n1`, 10.3 µM; as for `COc1ccc(-c2cc3nc(C)c(C)c(N4CCN(C(=O)c5ccco5)CC4)n3n2)cc1`, 4.78 µM. Still for that read-out and setting: as for `COc1cc(OC)cc(-c2cc3nc(C)c(C)c(N4CCN(C(=O)c5ccoc5)CC4)n3n2)c1`, the figure is 1.84 µM; as for `COc1ccc(-c2cc3nc(-c4ccco4)cc(N4CCN(C(=O)c5ccoc5)CC4)n3n2)cc1`, 4.86 µM; as for `O=C(OCc1ccccc1)N1CCN(c2cc(-c3ccco3)nc3cc(-c4ccccc4)nn23)CC1`, 3.03 µM. `CN(CCCN(C)c1cc(-c2ccco2)nc2cc(-c3ccccc3)nn12)C(=O)c1ccoc1`: the EC50 entry was “inactive”. For the molecule `O=C(c1ccoc1)N1CCN(c2cc(-c3ccoc3)nc3cc(-c4ccccc4)nn23)CC1`, the EC50 result is “inactive”. With `CC(=O)N1CCN(c2cc(-c3ccco3)nc3cc(-c4cccc(Cl)c4)nn23)CC1`, the EC50 was 3.97 µM.

Turning to `c1ccc(-c2cc3nc(-c4ccco4)cc(N4CCNCC4)n3n2)cc1`, the EC50 result is “inactive”. As to `Cc1ccc(-c2cc(N3CCN(C(=O)c4ccoc4)CC3)n3nc(-c4ccccc4)cc3n2)o1`, the EC50 result is “inactive”. For `COc1cccc(-c2cc3nc(C)c(C)c(N4CCN(C(=O)c5ccoc5)CC4)n3n2)c1`, the EC50 was 12.8 µM. Regarding `Cc1nc2cc(-c3ccc(Br)cc3)nn2c(N2CCN(C(=O)c3ccoc3)CC2)c1C`, the EC50 result was “inactive”. Regarding `O=C(C1CCCO1)N1CCN(c2c3c(nc4cc(-c5cccc(F)c5)nn24)CCCC3)CC1` (stereo not given), the EC50 entry was “inactive”. On the same count and under the same terms, as for `COc1cccc(-c2cc3nc(-c4ccccc4)c(C)c(N4CCN(C(=O)c5ccoc5)CC4)n3n2)c1`, the figure is 4.77 µM. As for `CC1CN(C(=O)OC(C)(C)C)CCN1c1cc(-c2ccco2)nc2cc(-c3ccccc3)nn12` (stereo not given), the EC50 result was “inactive”.

Take `CC(C)(C)OC(=O)N1CCN(c2cc(-c3ccco3)nc3cc(-c4ccccc4)nn23)CC1`: the EC50 result is “inactive”.

Turning to `O=C(c1ccoc1)N1CCN(c2cc(-c3ccccc3)nc3cc(-c4ccncc4)nn23)CC1`, the EC50 was 9.92 µM. With `COc1ccc(-c2cc(N3CCN(C(=O)c4ccoc4)CC3)n3nc(-c4ccccc4)cc3n2)cc1`, the EC50 result was “inactive”. With `O=C(c1ccoc1)N1CCN(c2cc(-c3ccccc3F)nc3cc(-c4ccccc4)nn23)CC1`, the EC50 is 10.5 µM. For `Cc1nc2cc(-c3ccncc3)nn2c(N2CCN(C(=O)c3ccoc3)CC2)c1C`, the EC50 result was “inactive”. On to `O=C(c1ccoc1)N1CCN(c2cc(-c3ccco3)nc3cc(-c4cccs4)nn23)CC1`, for which the EC50 is 9.8 µM. On to `O=C(c1coc2ccccc12)N1CCN(c2cc(-c3ccco3)nc3cc(-c4ccccc4)nn23)CC1`, for which the EC50 entry is “inactive”. With `O=C(c1ccoc1)N1CCN(c2cc(-c3cccs3)nc3cc(-c4ccccc4)nn23)CC1`, the EC50 was 8.33 µM. In the case of `O=C(c1ccco1)N1CCN(c2cc(-c3ccco3)nc3cc(-c4ccccc4)nn23)CC1`, the half-maximal effective concentration (EC50) was 8.53 µM. Regarding `O=C(c1ccoc1)N1CCN(c2cc(-c3cccc(F)c3)nc3cc(-c4ccccc4)nn23)CC1`, the EC50 entry was “inactive”. Take `COc1ccc(-c2cc3nc(-c4ccccc4)cc(N4CCN(C(=O)c5ccoc5)CC4)n3n2)cc1`: the EC50 is 2.05 µM. For `O=C(c1ccsc1)N1CCN(c2cc(-c3ccco3)nc3cc(-c4ccccc4)nn23)CC1`, the EC50 is 5.69 µM. Consider `O=C(c1ccoc1)N1CCN(c2cc(-c3ccco3)nc3cc(-c4ccco4)nn23)CC1`, for which the EC50 was 2.03 µM. Same read-out and setting: then `Cc1cccc(-c2cc3nc(-c4ccco4)cc(N4CCN(C(=O)c5ccoc5)CC4)n3n2)c1`, with “inactive”. Same read-out and setting: then `Cc1cc(C(=O)N2CCN(c3cc(-c4ccco4)nc4cc(-c5ccccc5)nn34)CC2)c(C)o1`, with 8.68 µM; and `COc1ccccc1-c1cc(N2CCN(C(=O)c3ccoc3)CC2)n2nc(-c3ccccc3)cc2n1`, with 15.3 µM.

As for `Cc1occc1C(=O)N1CCN(c2cc(-c3ccco3)nc3cc(-c4ccccc4)nn23)CC1`, the EC50 was 11.8 µM. With `Cc1nc2cc(-c3ccc4c(c3)OCO4)nn2c(N2CCN(C(=O)c3ccoc3)CC2)c1C`, the EC50 was 1.93 µM. Consider `COc1ccc(-c2cc3nc(C)c(C)c(N4CCN(C(=O)c5ccoc5)CC4)n3n2)cc1`, for which the EC50 was 4.08 µM. Turning to `O=C(c1ccco1)N1CCN(c2c3c(nc4cc(-c5ccc(F)cc5)nn24)CCC3)CC1`, the EC50 was 1.85 µM. Consider `O=C(c1ccoc1)N1CCN(c2cc(-c3ccco3)nc3cc(-c4ccc(Cl)cc4)nn23)CC1`, for which the EC50 result was “inactive”. In the case of `COc1cccc(-c2cc3nc(-c4ccccc4)cc(N4CCN(C(=O)c5ccoc5)CC4)n3n2)c1`, the EC50 is 7.07 µM. In the case of `O=C(c1ccoc1)N1CCN(c2cc(-c3ccco3)nc3cc(-c4cccc(-c5ccco5)c4)nn23)CC1`, the half-maximal effective concentration (EC50) was 5.15 µM.

As to `COC(=O)c1cccc(-c2cc(N3CCN(C(=O)c4ccoc4)CC3)n3nc(-c4cccc(OC)c4)cc3n2)c1`, the EC50 was 2.97 µM. Regarding `CC(=O)N1CCN(c2cc(-c3ccco3)nc3cc(-c4ccccc4)nn23)CC1`, the EC50 was 5.44 µM.

As to `COc1ccc(-c2[nH]nc3nc(N4CCN(C(=O)c5ccoc5)CC4)cc(C(F)(F)F)c23)cc1`, the EC50 entry is “inactive”. On to `Cc1ccc(-c2cc3nc(-c4ccco4)cc(N4CCN(C(=O)c5ccoc5)CC4)n3n2)cc1`, for which the EC50 result is “inactive”. With `O=C(c1ccoc1)N1CCCN(c2cc(-c3ccco3)nc3cc(-c4ccccc4)nn23)C1`, the EC50 result was “inactive”. The same measure, in the same setting: as for `O=C(c1ccoc1)N1CCN(c2cc(-c3cccc(F)c3)nc3cc(-c4cccc(Cl)c4)nn23)CC1`, the figure is 6.45 µM. For `Cc1nc2cc(-c3ccccc3)nn2c(N2CCN(C(=O)c3ccoc3)CC2)c1C`, the EC50 was 2.19 µM. Same read-out and setting: as for `O=C(c1ccoc1)N1CCN(c2cc(-c3ccco3)nc3cc(-c4cccc(Cl)c4)nn23)CC1`, the entry is “inactive”; as for `c1ccc(CN2CCN(c3cc(-c4ccco4)nc4cc(-c5ccccc5)nn34)CC2)cc1`, 3.84 µM; as for `COc1cccc(-c2cc(N3CCN(C(=O)c4ccoc4)CC3)n3nc(-c4cccc(OC)c4)cc3n2)c1`, 3.54 µM.

Take `COc1cccc(-c2cc3nc(C)cc(N4CCN(C(=O)c5ccoc5)CC4)n3n2)c1`: the EC50 result is “inactive”. `Cc1c(-c2ccco2)nc2cc(-c3ccccc3)nn2c1N1CCN(C(=O)c2ccoc2)CC1`: the 50% effective concentration (EC50) is 6.48 µM. With `Cc1nc2cc(-c3cccc(Cl)c3)nn2c(N2CCN(C(=O)c3ccoc3)CC2)c1C`, the EC50 result is “inactive”.

Still in this test, the particulars now being: at 50 µM (top of the series).
As for `Cc1nc2cc(-c3cccc(F)c3)nn2c(N2CCN(C(=O)c3ccco3)CC2)c1C`, the inhibition result is “inactive”. With `COc1ccccc1-c1c(C)nn2c(N3CCN(C(=O)c4ccco4)CC3)cc(C)nc12`, the inhibition entry was “inactive”.

For the molecule `CC(=O)N1CCN(c2c(C)c(C)nc3cc(-c4ccc(F)cc4)nn23)CC1`, the inhibition result was “inactive”. For the molecule `COc1cccc(-c2cc3nc(C)c(C)c(N4CCN(Cc5ccco5)CC4)n3n2)c1`, the inhibition result is “inactive”. For `Cc1nn2c(N3CCN(C(=O)c4ccco4)CC3)cc(C(C)(C)C)nc2c1-c1ccc(Cl)cc1`, the inhibition result was “inactive”. For the molecule `O=C(c1ccco1)N1CCN(c2cc(-c3ccccc3)nc3ncnn23)CC1`, the inhibition entry was “inactive”.
